From patent US10023570B2 (Array BioPharma, Inc., priority 2015, dated 2018)
Where a name gives a salt, the structure may show the parent alone.

Target: human KDR protein in HEK-293 cells (Homo sapiens (Human), UniProt P35968)
Test: KDR Cell Assay (phospho-KDR in HEK-293 cells expressing inducible KDR)
Type: cell-based
Conditions: pKDR Cell HEK 10% FBS IC50, HEK-293 cells expressing inducible KDR, VEGF stimulated
Method: The cellular potency of a compound inhibiting KDR kinase was determined in HEK-293 cells expressing an inducible human KDR protein. […] The cells were incubated for 1 hour with test compound in DMEM at a final DMSO concentration of 0.25%. […] The media was aspirated and 35 μL of a 1× lysis buffer was added. […] The lysate was stored at −80° C. until ready for assay. Phospho-KDR was measured using a phospho-KDR kit (Catalog #K151BOC) purchased from Meso Scale Diagnostics (Rockville, Md.) according to the manufacturer's instructions. All values are expressed as percent of percent of control (POC). The POC values were fitted to a 4 parameter logistic curve fit and the IC50 value is point where the curve crosses 50 POC.

Sequence of human KDR protein in HEK-293 cells (P35968 20-1356): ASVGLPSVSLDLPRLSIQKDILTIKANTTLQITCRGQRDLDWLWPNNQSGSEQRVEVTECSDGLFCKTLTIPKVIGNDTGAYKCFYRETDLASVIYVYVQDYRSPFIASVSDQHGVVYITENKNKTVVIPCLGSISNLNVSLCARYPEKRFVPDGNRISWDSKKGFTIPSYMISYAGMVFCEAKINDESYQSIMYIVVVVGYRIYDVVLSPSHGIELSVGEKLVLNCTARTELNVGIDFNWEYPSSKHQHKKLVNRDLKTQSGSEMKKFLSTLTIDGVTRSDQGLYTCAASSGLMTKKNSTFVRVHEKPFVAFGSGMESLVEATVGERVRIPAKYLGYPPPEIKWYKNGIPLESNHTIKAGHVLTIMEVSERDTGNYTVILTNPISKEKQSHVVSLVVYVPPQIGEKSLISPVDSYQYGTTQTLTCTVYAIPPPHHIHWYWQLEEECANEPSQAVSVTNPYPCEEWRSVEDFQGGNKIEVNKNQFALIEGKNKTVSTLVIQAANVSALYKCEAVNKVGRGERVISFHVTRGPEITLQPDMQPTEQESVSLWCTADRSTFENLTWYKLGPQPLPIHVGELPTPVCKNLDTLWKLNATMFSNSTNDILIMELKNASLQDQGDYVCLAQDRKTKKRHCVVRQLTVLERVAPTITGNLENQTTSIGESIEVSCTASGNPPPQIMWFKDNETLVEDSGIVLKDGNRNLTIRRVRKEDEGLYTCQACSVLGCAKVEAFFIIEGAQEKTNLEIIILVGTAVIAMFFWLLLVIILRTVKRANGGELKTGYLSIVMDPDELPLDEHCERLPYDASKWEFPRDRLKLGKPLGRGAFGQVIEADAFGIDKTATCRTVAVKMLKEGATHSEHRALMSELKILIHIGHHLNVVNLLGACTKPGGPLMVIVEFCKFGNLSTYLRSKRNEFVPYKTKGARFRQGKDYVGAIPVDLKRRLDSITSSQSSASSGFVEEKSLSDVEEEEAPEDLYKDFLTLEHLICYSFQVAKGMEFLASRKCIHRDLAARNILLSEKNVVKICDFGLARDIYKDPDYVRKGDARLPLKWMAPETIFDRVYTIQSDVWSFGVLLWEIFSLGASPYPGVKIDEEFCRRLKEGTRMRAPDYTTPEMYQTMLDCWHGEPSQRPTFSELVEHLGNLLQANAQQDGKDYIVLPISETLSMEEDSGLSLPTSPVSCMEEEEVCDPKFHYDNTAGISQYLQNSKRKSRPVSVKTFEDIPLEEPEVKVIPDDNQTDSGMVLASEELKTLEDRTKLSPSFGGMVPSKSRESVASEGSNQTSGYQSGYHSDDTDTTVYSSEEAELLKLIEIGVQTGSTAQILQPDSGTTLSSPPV

| IC50 [nM] | SMILES |
| --- | --- |
| 968 | Cn1cc(-c2cc(-c3ccc(N4CCN(Cc5ccccn5)CC4)nc3)c3c(C#N)cnn3c2)cn1 [Example 473, 6-(1-methyl-1H-pyrazol-4-yl)-4-(6-(4-(pyridine-2-ylmethyl)piperazin-1-yl)pyridin-3-yl)pyrazolo[1,5-a]pyridine-3-carbonitrile] |
| 916 | Cn1cc(-c2cc(-c3ccc(N4CCN(Cc5ccc(Cl)cc5)CC4)nc3)c3c(C#N)cnn3c2)cn1 [Example 425, 4-(6-(4-(4-chlorobenzyl)piperazin-l-yl)pyridin-3-yl)-6-(1-methyl-1H-pyrazol-4-yl)pyrazolo[1,5-a]pyridine-3-carbonitrile] |
| 555 | Cn1cc(-c2cc(-c3ccc(N4CCN(C(=O)N5CC6CC6C5)CC4)nc3)c3c(C#N)cnn3c2)cn1 (stereo not shown) [Example 380, 4-(6-(4-(3-azabicyclo[3.1.0]hexane-3-carbonyl)piperazin-1-yl)pyridin-3-yl)-6-(1-methyl-1H-pyrazol-4-yl)pyrazolo[1,5-a]pyridine-3-carbonitrile] |
| 828 | Cn1cc(-c2cc(-c3ccc(N4CCN(CCOC5CC5)CC4)nc3)c3c(C#N)cnn3c2)cn1 [Example 407, 4-(6-(4-(2-cyclopropoxyethyl)piperazin-1-yl)pyridin-3-yl)-6-(1-methyl-1H-pyrazol-4-yl)pyrazolo[1,5-a]pyridine-3-carbonitrile] |
| 1580 | Cn1cc(-c2cc(-c3ccc(N4CCN(Cc5cccnc5)CC4)nc3)c3c(C#N)cnn3c2)cn1 [Example 471, 6-(1-methyl-1H-pyrazol-4-yl)-4-(6-(4-(pyridin-3-ylmethyl)piperazin-1-yl)pyridine-3-yl)pyrazolo[1,5-a]pyridine-3-carbonitrile] |
| 692 | Cc1cc(C)nc(CN2CCN(c3ccc(-c4cc(-c5cnn(C)c5)cn5ncc(C#N)c45)cn3)CC2)n1 [Example 401, 4-(6-(4-((4,6-dimethylpyrimidin-2-yl)methyl)piperazin-1-yl)pyridin-3-yl)-6-(1-methyl-1H-pyrazol-4-yl)pyrazolo[1,5-a]pyridine-3-carbonitrile] |
| 1620 | C[C@H](c1ccccc1)N1CCN(c2ccc(-c3cc(-c4cnn(C)c4)cn4ncc(C#N)c34)cn2)CC1 [Example 421, (R)-6-(1-methyl-1H-pyrazol-4-yl)-4-(6-(4-(1-phenylethyl)piperazin-1-yl)pyridin-3-yl)pyrazolo[1,5-a]pyridine-3-carbonitrile dihydrochloride] |
| 1560 | Cn1cc(-c2cc(-c3ccc(N4CCN(Cc5cc(F)ccc5F)CC4)nc3)c3c(C#N)cnn3c2)cn1 [Example 429, 4-(6-(4-(2,5-difluorobenzyl)piperazin-1-yl)pyridin-3-yl)-6-(1-methyl-1H-pyrazol-4-yl)pyrazolo[1,5-a]pyridine-3-carbonitrile] |
| 464 | Cn1cc(-c2cc(-c3ccc(N4CCN(Cc5cccc(Cl)c5)CC4)nc3)c3c(C#N)cnn3c2)cn1 [Example 455, 4-(6-(4-(3-chlorobenzyl)piperazin-1-yl)pyridin-3-yl)-6-(1-yl)methyl-1H-pyrazol-4-pyrazolo[1,5-a]pyridine-3-carbonitrile] |
| 1300 | CCCN1CCN(c2ccc(-c3cc(-c4cnn(C)c4)cn4ncc(C#N)c34)cn2)CC1 [Example 408, 6-(1-methyl-1H-pyrazol-4-yl)-4-(6-(4-propylpiperazin-1-yl)pyridin-3-yl)pyrazolo[1,5-a]pyridine-3-carbonitrile] |

Same assay, conditions: pKDR Cell HEK 10% FBS IC50, HEK-293 cells expressing inducible KDR, VEGF stimulated, 10% FBS

| IC50 [nM] | SMILES |
| --- | --- |
| 551 | Cn1cc(-c2cc(-c3ccc(N4CCN(C(=O)N5CC[C@H](F)C5)CC4)nc3)c3c(C#N)cnn3c2)cn1 [Example 102, (S)-4-(6-(4-(3-fluoropyrrolidine-1-carbonyl)piperazin-1-yl)pyridin-3-yl)-6-(1-methyl-1H-pyrazol-4-yl)pyrazolo[1,5-a]pyridine-3-carbonitrile] |
| 1760 | Cc1cc(-c2cc(-c3ccc(N4CCN(C(=O)CC(C)(C)C)CC4)cc3)c3c(C#N)cnn3c2)n[nH]1 [Example 310, 4-(4-(4-(3,3-dimethylbutanoyl)piperazin-1-yl)phenyl)-6-(5-methyl-1H-pyrazol-3-yl)pyrazolo[1,5-a]pyridine-3-carbonitrile] |
| 606 | Cn1cc(-c2cc(-c3ccc(N4CCN(C(=O)N5CCC(C)(C)C5)CC4)nc3)c3c(C#N)cnn3c2)cn1 [Example 118, 4-(6-(4-(3,3-dimethylpyrrolidine-1-carbonyl)piperazin-1-yl)pyridin-3-yl)-6-(1-methyl-1H-pyrazol-4-yl)pyrazolo[1,5-a]pyridine-3-carbonitrile] |
| 47.4 | Cn1cc(-c2cc(-c3ccc(N4CCN(C(=O)C(O)c5ccccc5F)CC4)nc3)c3c(C#N)cnn3c2)cn1 (stereo not shown) [Example 10, 4-(6-(4-(2-(2-fluorophenyl)-2-hydroxyacetyl)piperazin-1-yl)pyridin-3-yl)-6-(1-methyl-1H-pyrazol-4-yl)pyrazolo[1,5-a]pyridine-3-carbonitrile] |
| 4830 | CO[C@H]1CCN(C(=O)N2CCN(c3ncc(-c4cc(-c5cnn(C)c5)cn5ncc(C#N)c45)cn3)CC2)C1 [Example 286, (S)-4-(2-(4-(3-methoxypyrrolidine-1-carbonyl)piperazin-1-yl)pyrimidin-5-yl)-6-(1-methyl-1H-pyrazol-4-yl)pyrazolo[1,5-a]pyridine-3-carbonitrile] |
| 1830 | COC(=O)N1CCN(c2ccc(-c3cc(-c4cnn(C)c4)cn4ncc(C#N)c34)cc2)CC1 [Example 298, Methyl 4-(4-(3-cyano-6-(1-methyl-1H-pyrazol-4-yl)pyrazolo[1,5-a]pyridin-4-yl)phenyl)piperazine-1-carboxylate] |
| 2250 | Cn1cc(-c2cc(-c3ccc(N4CCN(C(=O)N5CCC(F)CC5)CC4)nc3)c3c(C#N)cnn3c2)cn1 [Example 114, 4-(6-(4-(4-fluoropiperidine-1-carbonyl)piperazin-1-yl)pyridin-3-yl)-6-(1-methyl-1H-pyrazol-4-yl)pyrazolo[1,5-a]pyridine-3-carbonitrile] |
| 2270 | Cn1cc(-c2cc(-c3ccc(N4CCN(C(=O)N5CCOCC5)CC4)nc3)c3c(C#N)cnn3c2)cn1 [Example 119, 6-(1-methyl-1H-pyrazol-4-yl)-4-(6-(4-(morpholine-4-carbonyl)piperazin-1-yl)pyridin-3-yl)pyrazolo[1,5-a]pyridine-3-carbonitrile] |
| 4680 | Cn1cc(-c2cc(-c3ccc(N4CCCC5(CCN(C(=O)OC(C)(C)C)C5)C4)nc3)c3c(C#N)cnn3c2)cn1 (stereo not shown) [Example 208, tert-butyl 7-(5-(3-cyano-6-(1-methyl-1H-pyrazol-4-yl)pyrazolo[1,5-a]pyridin-4-yl)pyridin-2-yl)-2,7-diazaspiro[4.5]decane-2-carboxylate] |
| 497 | N#Cc1cnn2cc(-c3cnn(C(F)F)c3)cc(-c3ccc(N4CCN(C(=O)[C@H](O)c5ccccc5)CC4)nc3)c12 [Example 268, (R)-6-(1-(difluoromethyl)-1H-pyrazol-4-yl)-4-(6-(4-(2-hydroxy-2-phenylacetyl)piperazin-1-yl)pyridin-3-yl)pyrazolo[1,5-a]pyridine-3-carbonitrile] |
| 75.2 | Cn1cc(-c2cc(-c3ccc(N4CCC(NC(=O)c5ccccc5)CC4)nc3)c3c(C#N)cnn3c2)cn1 [Example 184, N-(1-(5-(3-cyano-6-(1-methyl-1H-pyrazol-4-yl)pyrazolo[1,5-a]pyridin-4-yl)pyridin-2-yl)piperidin-4-yl)benzamide] |
| 164 | Cn1cc(-c2cc(-c3ccc(N4CCN(C[C@H](O)c5cccc(Cl)c5)CC4)nc3)c3c(C#N)cnn3c2)cn1 [Example 153, (R)-4-(6-(4-(2-(3-chlorophenyl)-2-hydroxyethyl)piperazin-1-yl)pyridin-3-yl)-6-(1-methyl-1H-pyrazol-4-yl)pyrazolo[1,5-a]pyridine-3-carbonitrile] |
| 762 | Cn1cc(-c2cc(-c3ccc(N4CCN(C(=O)C5(O)CC5)CC4)nc3)c3c(C#N)cnn3c2)cn1 [Example 81, 4-(6-(4-(1-hydroxycyclopropane-1-carbonyl)piperazin-1-yl)pyridin-3-yl)-6-(1-methyl-1H-pyrazol-4-yl)pyrazolo[1,5-a]pyridine-3-carbonitrile] |
| 99.9 | Cn1cc(-c2cc(-c3ccc(N4CCN(C(=O)c5ccccn5)CC4)nc3)c3c(C#N)cnn3c2)cn1 [Example 72, 6-(1-methyl-1H-pyrazol-4-yl)-4-(6-(4-picolinoylpiperazin-1-yl)pyridin-3-yl)pyrazolo[1,5-a]pyridine-3-carbonitrile] |
| 289 | Cn1cc(-c2cc(-c3ccc(N4CCN(Cc5ccccc5)CC4)nc3)c3c(C#N)cnn3c2)cn1 [Example 139, 4-(6-(4-benzylpiperazin-1-yl)pyridin-3-yl)-6-(1-methyl-1H-pyrazol-4-yl)pyrazolo[1,5-a]pyridine-3-carbonitrile] |

| SMILES | IC50 [nM] |
| --- | --- |
| CN(C)CC(=O)N1CC2CCC(C1)N2c1ccc(-c2cc(-c3cnn(C)c3)cn3ncc(Cl)c23)cn1 [Example 336, 1-(8-(5-(3-chloro-6-(1-methyl-1H-pyrazol-4-yl)pyrazolo[1,5-a]pyridin-4-yl)pyridin-2-yl)-3,8-diazabicyclo[3.2.1]octan-3-yl)-2-(dimethylamino)ethanone] | 614 |
| Cc1cnc(C(=O)N2CCN(c3ccc(-c4cc(-c5cnn(C)c5)cn5ncc(C#N)c45)cn3)CC2)cn1 [Example 49, 6-(1-methyl-1H-pyrazol-4-yl)-4-(6-(4-(5-methylpyrazine-2-carbonyl)piperazin-1-yl)pyridin-3-yl)pyrazolo[1,5-a]pyridine-3-carbonitrile bis(2,2,2-trifluoroacetate)] | 237 |
| Cn1cc(-c2cc(-c3ccc(C4CCNCC4)cc3)c3c(C#N)cnn3c2)cn1 [Example 301, 6-(1-methyl-1H-pyrazol-4-yl)-4-(4-(piperidin-4-yl)phenyl)pyrazolo[1,5-a]pyridine-3-carbonitrile dihydrochloride] | 158 |
